Laboratory results: ChEMBL document CHEMBL5303304, “EUbOPEN Chemogenomics Library - IncuCyte” (2023)

Tests used:
Type in all cases: toxicity, cell-based
U2OS = test: Incucyte cell viability with U2OS; conditions: human, 10 µM, compound concentration 10 uM
HEK-293T = test: Incucyte cell viability with HEK293T; conditions: human, 10 µM, compound concentration 10 uM
Fibroblast = test: Incucyte cell viability with human fibroblast; conditions: 10 µM, compound concentration 10 uM
Note: unitless GR value; below 1 slowed growth and below 0 cell loss.

| Structure (SMILES) | Growth Rate (U2OS; 24 h, replicate number 1) | Growth Rate (HEK-293T; 6 h, replicate number 1) | Growth Rate (HEK-293T; 12 h, replicate number 1) | Growth Rate (HEK-293T; 12 h, replicate number 2) | Growth Rate (HEK-293T; 18 h, replicate number 1) | Growth Rate (HEK-293T; 18 h, replicate number 2) | Growth Rate (HEK-293T; 24 h, replicate number 1) | Growth Rate (HEK-293T; 24 h, replicate number 2) | Growth Rate (Fibroblast; 6 h, replicate number 2) | Growth Rate (Fibroblast; 12 h, replicate number 2) | Growth Rate (Fibroblast; 18 h, replicate number 2) | Growth Rate (U2OS; 6 h, replicate number 1) | Growth Rate (U2OS; 12 h, replicate number 1) | Growth Rate (Fibroblast; 6 h, replicate number 1) | Growth Rate (Fibroblast; 18 h, replicate number 1) | Growth Rate (Fibroblast; 24 h, replicate number 1) | Growth Rate (Fibroblast; 24 h, replicate number 2) | Growth Rate (U2OS; 12 h, replicate number 2) | Growth Rate (U2OS; 24 h, replicate number 2) | Growth Rate (HEK-293T; 6 h, replicate number 2) | further results |
| --- | --- | --- | --- | --- | --- | --- | --- | --- | --- | --- | --- | --- | --- | --- | --- | --- | --- | --- | --- | --- | --- |
| Cc1c(NC(=O)c2ccc(C(C)(C)C)cc2)cccc1-c1cn(C)c(=O)c(Nc2ccc(C(=O)N3CCOCC3)cc2)n1 | 0.97 | 0.48 | 0.38 | 0.51 | 0.53 | 0.35 | 0.63 | 0.48 | -0.1 | 0.63 | 0.72 | – | – | – | – | – | – | – | – | – | – |
| CC1=C(C(=O)OCCO)[C@@H](c2ccc(C#N)cc2)NC(=O)N1c1cccc(C(F)(F)F)c1 | – | 0.61 | 0.73 | 0.75 | 0.68 | 0.71 | 0.67 | 0.97 | – | – | 0.92 | – | – | – | – | – | – | – | – | – | Growth Rate (U2OS; 0 h, replicate number 2): 0.55; Growth Rate (Fibroblast; 0 h, replicate number 2): -0.51 |
| O=C(CCCCCCc1ccccc1)c1ncc(-c2ccccn2)o1 | 0.87 | 0.7 | 0.79 | 0.88 | 0.76 | 0.88 | 0.8 | 0.97 | 0.12 | 0.63 | 0.85 | 0.84 | 0.58 | 0.4 | 0.96 | 0.93 | 0.84 | – | – | – | Growth Rate (U2OS; 0 h, replicate number 1): 0.55; Growth Rate (Fibroblast; 0 h, replicate number 1): -0.98 |
| COc1ccccc1N1CCN(c2ncnc3c2cnn3-c2ccccc2)CC1 | 0.25 | 0.67 | 0.99 | 0.98 | – | – | – | – | – | 0.94 | – | – | 0.47 | -0.03 | 0.39 | 0.48 | 0.91 | 0.93 | 0.85 | 0.19 | Growth Rate (U2OS; 0 h, replicate number 1): 0.75; Growth Rate (U2OS; 18 h, replicate number 1): 0.13; Growth Rate (U2OS; 18 h, replicate number 2): 1; Growth Rate (Fibroblast; 0 h, replicate number 2): 0; Growth Rate (Fibroblast; 12 h, replicate number 1): 0.42 |
| Cc1cc(-c2nc(-c3ccc(OC(F)(F)F)cc3)no2)nn1Cc1ccnc(N2CCN(C3CC3)CC2)c1 | 0.88 | 0.47 | 0.32 | 0.08 | 0.25 | 0.18 | 0.37 | 0.3 | – | 0.36 | 0.2 | – | 0.94 | 0.9 | 0.22 | 0.26 | 0.5 | 0.51 | 0.71 | -0.22 | Growth Rate (U2OS; 18 h, replicate number 2): 0.61; Growth Rate (Fibroblast; 0 h, replicate number 1): -1; Growth Rate (Fibroblast; 12 h, replicate number 1): 0.3 |
| C[C@]12CC[C@@H]3c4ccc(O)cc4CC[C@H]3[C@@H]1C[C@H]1OC(=O)C[C@]12O | 0.6 | 0.27 | 0.37 | 0.34 | 0.36 | 0.67 | 0.53 | 0.86 | -0.98 | -0.36 | 0.13 | 0.43 | 0.21 | 0.09 | 0.55 | 0.77 | 0.48 | 0.26 | 0.72 | – | Growth Rate (U2OS; 0 h, replicate number 1): 0.82; Growth Rate (U2OS; 0 h, replicate number 2): 0.2; Growth Rate (U2OS; 6 h, replicate number 2): -0.19; Growth Rate (U2OS; 18 h, replicate number 1): 0.38; Growth Rate (U2OS; 18 h, replicate number 2): 0.65; Growth Rate (Fibroblast; 0 h, replicate number 1): -1; Growth Rate (Fibroblast; 12 h, replicate number 1): 0.52 |
| O=C1CN(c2ccccc2F)C(NCCN2CCOCC2)=C1c1nc2cc(Br)ccc2c(=O)[nH]1 | 0.89 | 0.22 | 0.49 | 1 | 0.53 | – | 0.74 | 0.88 | – | – | – | 0.56 | 0.85 | – | – | – | – | 0.96 | 0.96 | 0.74 | Growth Rate (U2OS; 0 h, replicate number 1): 0.24; Growth Rate (U2OS; 18 h, replicate number 1): 1; Growth Rate (Fibroblast; 0 h, replicate number 2): -0.37 |
| Cc1ccc2c(NS(=O)(=O)c3ccccc3Cl)cccc2c1Oc1ncccc1-c1ccnc(N[C@H]2CCCNC2)n1.Cl | 0.55 | 0.95 | 0.33 | 0.52 | 0.5 | 0.6 | 0.48 | 0.55 | – | 0.45 | 0.38 | 0.4 | 0.68 | 0.69 | 0.34 | 0.3 | 0.49 | 0.62 | 0.58 | – | Growth Rate (U2OS; 0 h, replicate number 1): 0.22; Growth Rate (U2OS; 0 h, replicate number 2): 0.32; Growth Rate (U2OS; 6 h, replicate number 2): 0.75; Growth Rate (U2OS; 18 h, replicate number 1): 0.69; Growth Rate (U2OS; 18 h, replicate number 2): 0.57; Growth Rate (Fibroblast; 0 h, replicate number 1): -1; Growth Rate (Fibroblast; 12 h, replicate number 1): 0.21 |
| CC(C)(C)c1cc(NC(=O)c2csc(Nc3ccccn3)n2)no1 | 0.65 | -0.14 | 0.04 | -0.02 | 0.08 | 0.01 | 0.31 | 0.2 | -0.67 | 0.03 | 0.35 | 0.51 | 0.72 | 0.76 | 0.21 | 0.31 | 0.35 | 0.69 | 0.97 | -0.51 | Growth Rate (U2OS; 0 h, replicate number 1): 0.58; Growth Rate (U2OS; 18 h, replicate number 1): 0.81; Growth Rate (Fibroblast; 12 h, replicate number 1): 0.84 |
| CCS(=O)(=O)Nc1cccc(Oc2cc(F)cc(Nc3ccc(I)cc3F)c2NS(=O)(=O)C2CC2)c1 | 0.78 | 0.37 | 0.34 | 0.42 | 0.6 | 0.5 | 0.61 | 0.48 | -0.17 | – | – | 0.85 | 0.89 | 0.24 | – | – | – | 0.78 | – | -0.1 | Growth Rate (U2OS; 18 h, replicate number 1): 0.91; Growth Rate (U2OS; 18 h, replicate number 2): 1; Growth Rate (Fibroblast; 0 h, replicate number 1): -1; Growth Rate (Fibroblast; 0 h, replicate number 2): 0.69 |
| CC(C)Nc1ncnc2cc(OCc3cccc([S@@](C)(=N)=O)c3)c(Br)cc12 | 0.93 | 0.65 | 0.67 | 0.73 | 0.82 | 0.81 | 0.82 | 0.87 | – | – | – | – | – | – | – | – | – | – | – | 0.3 | Growth Rate (Fibroblast; 0 h, replicate number 1): -0.74 |
| COc1cc(-c2cc([C@H](O)C3CC3)n3ncnc(N)c23)ccc1CO | 0.8 | -0.7 | 0.16 | 0.26 | 0.62 | 0.76 | 0.74 | 0.87 | – | – | – | – | – | – | – | – | 0.98 | 0.85 | 0.91 | -0.8 | Growth Rate (U2OS; 18 h, replicate number 2): 0.89; Growth Rate (Fibroblast; 0 h, replicate number 2): 0.98 |
| CCC(C(=O)Nc1ccc(-c2cc3ccccc3s2)c(C(N)=O)c1)c1nccs1 (stereo not drawn) | 0.72 | 0.31 | 0.59 | 0.52 | 0.48 | 0.61 | 0.47 | 0.71 | -0.79 | – | 0.9 | 0.65 | 0.41 | 0.22 | 0.93 | 0.96 | – | 0.59 | 0.86 | 0.23 | Growth Rate (U2OS; 0 h, replicate number 1): 0.65; Growth Rate (U2OS; 6 h, replicate number 2): 0.92; Growth Rate (U2OS; 18 h, replicate number 1): 0.47; Growth Rate (U2OS; 18 h, replicate number 2): 0.8; Growth Rate (Fibroblast; 12 h, replicate number 1): 0.72 |
| Cc1c(CN2CCC3(CC2)CN(c2ncnc4sc(CC(F)(F)F)cc24)C3)ccc2c1cc(C#N)n2CC(N)=O | 0.94 | 0.58 | 0.59 | 0.34 | 0.63 | 0.44 | 0.69 | 0.47 | -0.88 | -0.34 | -0.22 | 1 | – | -0.45 | -0.16 | -0.05 | 0.09 | – | – | -0.05 | Growth Rate (U2OS; 0 h, replicate number 2): 0.3; Growth Rate (Fibroblast; 0 h, replicate number 1): -1; Growth Rate (Fibroblast; 12 h, replicate number 1): -0.4 |
